Measurements from US9695155B2, “Herbicidal substituted pyrimidinyloxy benzene compounds” (E. I. DU PONT DE NEMOURS AND COMPANY, priority 2013, dated 2017).

Legend:
Assay in all cases: Test C preemergence
blackgrass = format: in vivo, Alopecurus myosuroides
How it was run: (§1)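 Visual injury score versus untreated controls, 0 = no effect, 100 = complete control, taken 13 to 15 days after treatment in the greenhouse. Pre-emergence pots held loam/sand; post-emergence plants grew in sphagnum peat/vermiculite mix and were sprayed at the 1- to 4-leaf stage.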

wheat, winter = format: in vivo, Triticum aestivum
How it was run: as §1

large (Lg) crabgrass = format: in vivo, Digitaria sanguinalis
How it was run: as §1

giant foxtail = format: in vivo, Setaria faberii
How it was run: as §1

lambsquarters = format: in vivo, Chenopodium album
How it was run: as §1

yellow nutsedge = format: in vivo, Cyperus esculentus
How it was run: as §1

pigweed = format: in vivo, Amaranthus retroflexus
How it was run: as §1

ragweed = format: in vivo, Ambrosia elatior
How it was run: as §1

soybean = format: in vivo, Glycine max
How it was run: as §1

barnyardgrass = format: in vivo, Echinochloa crus-galli
How it was run: as §1

oilseed rape = format: in vivo, Brassica napus
How it was run: as §1

waterhemp = format: in vivo, Amaranthus rudis
How it was run: as §1

velvetleaf = format: in vivo, Abutilon theophrasti
How it was run: as §1

[1] = 125 g ai/ha, preemergence, scale 0 (no effect) to 100 (complete control)
[2] = 250 g ai/ha, preemergence, scale 0 (no effect) to 100 (complete control)
[3] = Preemergence, 62 g ai/ha, scale 0 to 100, 0 no effect, 100 complete control

N#Cc1cccc(Oc2ncc(Cl)cn2)c1-n1cc(OCC(F)(F)F)cn1 [Compound 274, 3-[(5-chloro-2-pyrimidinyl)oxy]-2-[4-(2,2,2-trifluoroethoxy)-1H-pyrazol-1-yl]benzonitrile]
pest or weed control at 16 g/ha (blackgrass; Alopecurus myosuroides, pre-emergence, 16 g ai/ha, preemergence, scale 0 to 100 (0 no effect, 100 complete control), read-out: Blackgrass plant response rating): 50%
pest or weed control at 125 g/ha (blackgrass; Alopecurus myosuroides, pre-emergence, 125 g ai/ha, preemergence, scale 0 (no effect) to 100 (complete control), read-out: Blackgrass plant response rating): 90%
pest or weed control at 62 g/ha (blackgrass; Alopecurus myosuroides, pre-emergence, Preemergence, 62 g ai/ha, scale 0 to 100, 0 no effect, 100 complete control, read-out: Plant response rating, Blackgrass): 90%
plant injury at 16 g/ha (wheat, winter; Triticum aestivum, pre-emergence, 16 g ai/ha, preemergence, scale 0 to 100 (0 no effect, 100 complete control), read-out: Wheat plant response rating): 20%
plant injury at 125 g/ha (wheat, winter; Triticum aestivum, pre-emergence, 125 g ai/ha, preemergence, scale 0 (no effect) to 100 (complete control), read-out: Wheat plant response rating): 90%
plant injury at 62 g/ha (wheat, winter; Triticum aestivum, pre-emergence, Preemergence, 62 g ai/ha, scale 0 to 100, 0 no effect, 100 complete control, read-out: Plant response rating, Wheat): 90%
pest or weed control at 16 g/ha (large (Lg) crabgrass; Digitaria sanguinalis, pre-emergence, 16 g ai/ha, preemergence, scale 0 to 100 (0 no effect, 100 complete control), read-out: Crabgrass, Large plant response rating): 100%
pest or weed control at 125 g/ha (large (Lg) crabgrass; Digitaria sanguinalis, pre-emergence, 125 g ai/ha, preemergence, scale 0 (no effect) to 100 (complete control), read-out: Crabgrass, Large plant response rating): 100%
pest or weed control at 62 g/ha (large (Lg) crabgrass; Digitaria sanguinalis, pre-emergence, Preemergence, 62 g ai/ha, scale 0 to 100, 0 no effect, 100 complete control, read-out: Plant response rating, Crabgrass, Large): 100%
pest or weed control at 16 g/ha (giant foxtail; Setaria faberi, pre-emergence, 16 g ai/ha, preemergence, scale 0 to 100 (0 no effect, 100 complete control), read-out: Foxtail, Giant plant response rating): 98%
pest or weed control at 125 g/ha (giant foxtail; Setaria faberi, pre-emergence, 125 g ai/ha, preemergence, scale 0 (no effect) to 100 (complete control), read-out: Foxtail, Giant plant response rating): 100%
pest or weed control at 62 g/ha (giant foxtail; Setaria faberi, pre-emergence, Preemergence, 62 g ai/ha, scale 0 to 100, 0 no effect, 100 complete control, read-out: Plant response rating, Foxtail, Giant): 100%
pest or weed control at 16 g/ha (lambsquarters; Chenopodium album, pre-emergence, 16 g ai/ha, preemergence, scale 0 to 100 (0 no effect, 100 complete control), read-out: Lambsquarters plant response rating): 100%
pest or weed control at 125 g/ha (lambsquarters; Chenopodium album, pre-emergence, 125 g ai/ha, preemergence, scale 0 (no effect) to 100 (complete control), read-out: Lambsquarters plant response rating): 98%
pest or weed control at 62 g/ha (lambsquarters; Chenopodium album, pre-emergence, Preemergence, 62 g ai/ha, scale 0 to 100, 0 no effect, 100 complete control, read-out: Plant response rating, Lambsquarters): 100%
pest or weed control at 16 g/ha (yellow nutsedge; Cyperus, pre-emergence, 16 g ai/ha, preemergence, scale 0 to 100 (0 no effect, 100 complete control), read-out: Nutsedge, Yellow plant response rating): 20%
pest or weed control at 125 g/ha (yellow nutsedge; Cyperus, pre-emergence, 125 g ai/ha, preemergence, scale 0 (no effect) to 100 (complete control), read-out: Nutsedge, Yellow plant response rating): 95%
pest or weed control at 62 g/ha (yellow nutsedge; Cyperus, pre-emergence, Preemergence, 62 g ai/ha, scale 0 to 100, 0 no effect, 100 complete control, read-out: Plant response rating, Nutsedge, Yellow): 85%
pest or weed control at 16 g/ha (pigweed; Amaranthus retroflexus, pre-emergence, 16 g ai/ha, preemergence, scale 0 to 100 (0 no effect, 100 complete control), read-out: Pigweed plant response rating): 100%
pest or weed control at 125 g/ha (pigweed; Amaranthus retroflexus, pre-emergence, 125 g ai/ha, preemergence, scale 0 (no effect) to 100 (complete control), read-out: Pigweed plant response rating): 100%
pest or weed control at 62 g/ha (pigweed; Amaranthus retroflexus, pre-emergence, Preemergence, 62 g ai/ha, scale 0 to 100, 0 no effect, 100 complete control, read-out: Plant response rating, Pigweed): 100%
pest or weed control at 16 g/ha (ragweed; Ambrosia artemisiifolia, pre-emergence, 16 g ai/ha, preemergence, scale 0 to 100 (0 no effect, 100 complete control), read-out: Ragweed plant response rating): 10%
pest or weed control at 125 g/ha (ragweed; Ambrosia artemisiifolia, pre-emergence, 125 g ai/ha, preemergence, scale 0 (no effect) to 100 (complete control), read-out: Ragweed plant response rating): 75%
pest or weed control at 62 g/ha (ragweed; Ambrosia artemisiifolia, pre-emergence, Preemergence, 62 g ai/ha, scale 0 to 100, 0 no effect, 100 complete control, read-out: Plant response rating, Ragweed): 35%
plant injury at 16 g/ha (soybean; Glycine max, pre-emergence, 16 g ai/ha, preemergence, scale 0 to 100 (0 no effect, 100 complete control), read-out: Soybean plant response rating): 35%
plant injury at 125 g/ha (soybean; Glycine max, pre-emergence, 125 g ai/ha, preemergence, scale 0 (no effect) to 100 (complete control), read-out: Soybean plant response rating): 98%
plant injury at 62 g/ha (soybean; Glycine max, pre-emergence, Preemergence, 62 g ai/ha, scale 0 to 100, 0 no effect, 100 complete control, read-out: Plant response rating, Soybean): 95%
pest or weed control at 16 g/ha (barnyardgrass; Echinochloa crus-galli, pre-emergence, 16 g ai/ha, preemergence, scale 0 to 100 (0 no effect, 100 complete control), read-out: Barnyardgrass plant response rating): 90%
pest or weed control at 125 g/ha (barnyardgrass; Echinochloa crus-galli, pre-emergence, 125 g ai/ha, preemergence, scale 0 (no effect) to 100 (complete control), read-out: Barnyardgrass plant response rating): 100%
pest or weed control at 62 g/ha (barnyardgrass; Echinochloa crus-galli, pre-emergence, Preemergence, 62 g ai/ha, scale 0 to 100, 0 no effect, 100 complete control, read-out: Plant response rating, Barnyardgrass): 100%
plant injury at 16 g/ha (oilseed rape; Brassica napus, pre-emergence, 16 g ai/ha, preemergence, scale 0 to 100 (0 no effect, 100 complete control), read-out: Oilseed Rape plant response rating): 80%
plant injury at 125 g/ha (oilseed rape; Brassica napus, pre-emergence, 125 g ai/ha, preemergence, scale 0 (no effect) to 100 (complete control), read-out: Oilseed Rape plant response rating): 95%
plant injury at 62 g/ha (oilseed rape; Brassica napus, pre-emergence, Preemergence, 62 g ai/ha, scale 0 to 100, 0 no effect, 100 complete control, read-out: Plant response rating, Oilseed Rape): 95%
pest or weed control at 16 g/ha (waterhemp; Amaranthus tuberculatus, pre-emergence, 16 g ai/ha, preemergence, scale 0 to 100 (0 no effect, 100 complete control), read-out: Waterhemp plant response rating): 100%
pest or weed control at 125 g/ha (waterhemp; Amaranthus tuberculatus, pre-emergence, 125 g ai/ha, preemergence, scale 0 (no effect) to 100 (complete control), read-out: Waterhemp plant response rating): 100%
pest or weed control at 62 g/ha (waterhemp; Amaranthus tuberculatus, pre-emergence, Preemergence, 62 g ai/ha, scale 0 to 100, 0 no effect, 100 complete control, read-out: Plant response rating, Waterhemp): 100%
pest or weed control at 16 g/ha (velvetleaf; Abutilon theophrasti, pre-emergence, 16 g ai/ha, preemergence, scale 0 to 100 (0 no effect, 100 complete control), read-out: Velvetleaf plant response rating): 80%
pest or weed control at 125 g/ha (velvetleaf; Abutilon theophrasti, pre-emergence, 125 g ai/ha, preemergence, scale 0 (no effect) to 100 (complete control), read-out: Velvetleaf plant response rating): 100%
pest or weed control at 62 g/ha (velvetleaf; Abutilon theophrasti, pre-emergence, Preemergence, 62 g ai/ha, scale 0 to 100, 0 no effect, 100 complete control, read-out: Plant response rating, Velvetleaf): 100%

N#Cc1cnn(-c2c(C#N)cccc2Oc2ncc(Cl)cn2)c1 [Compound 200]
Blackgrass plant response rating (blackgrass; [1]): 98
Blackgrass plant response rating (blackgrass; [2]): 98
Plant response rating, Blackgrass (blackgrass; [3]): 95
Wheat plant response rating (wheat, winter; [1]): 90
Wheat plant response rating (wheat, winter; [2]): 95
Plant response rating, Wheat (wheat, winter; [3]): 65
Crabgrass, Large plant response rating (large (Lg) crabgrass; [1]): 100
Crabgrass, Large plant response rating (large (Lg) crabgrass; [2]): 100
Plant response rating, Crabgrass, Large (large (Lg) crabgrass; [3]): 100
Foxtail, Giant plant response rating (giant foxtail; [1]): 100
Foxtail, Giant plant response rating (giant foxtail; [2]): 100
Plant response rating, Foxtail, Giant (giant foxtail; [3]): 100
Lambsquarters plant response rating (lambsquarters; [1]): 98
Lambsquarters plant response rating (lambsquarters; [2]): 98
Plant response rating, Lambsquarters (lambsquarters; [3]): 98
Nutsedge, Yellow plant response rating (yellow nutsedge; [1]): 90
Nutsedge, Yellow plant response rating (yellow nutsedge; [2]): 95
Plant response rating, Nutsedge, Yellow (yellow nutsedge; [3]): 40
Pigweed plant response rating (pigweed; [1]): 100
Pigweed plant response rating (pigweed; [2]): 100
Plant response rating, Pigweed (pigweed; [3]): 100
Ragweed plant response rating (ragweed; [1]): 100
Ragweed plant response rating (ragweed; [2]): 98
Plant response rating, Ragweed (ragweed; [3]): 100
Soybean plant response rating (soybean; [1]): 95
Soybean plant response rating (soybean; [2]): 100
Plant response rating, Soybean (soybean; [3]): 90
Barnyardgrass plant response rating (barnyardgrass; [1]): 100
Barnyardgrass plant response rating (barnyardgrass; [2]): 100
Plant response rating, Barnyardgrass (barnyardgrass; [3]): 100
Oilseed Rape plant response rating (oilseed rape; [1]): 98
Oilseed Rape plant response rating (oilseed rape; [2]): 98
Plant response rating, Oilseed Rape (oilseed rape; [3]): 98
Waterhemp plant response rating (waterhemp; [1]): 100
Waterhemp plant response rating (waterhemp; [2]): 100
Plant response rating, Waterhemp (waterhemp; [3]): 100
Velvetleaf plant response rating (velvetleaf; [1]): 100
Velvetleaf plant response rating (velvetleaf; [2]): 100
Plant response rating, Velvetleaf (velvetleaf; [3]): 100
